Measured values reported in patent US9522962B2, “Peptides, conjugates and method for increasing immunogenicity of a vaccine” (Academisch Ziekenhuis Leiden h.o.d.n. LUMC, priority 2010, dated 2016).
Entries after “also recorded” stand apart in the source; their conditions may differ. Read-outs that look alike come from different tables or passages of the source. Square brackets hold non-standard residues; d marks the D form. Ends that are not written are not given here. * marks the point of attachment. Biotin = O=C1N[C@H]2[C@H](CS[C@H]2CCCCC(=O)*)N1; Ahx = NCCCCCC(=O)O

Experiments:
[1] = test system: antibodies in individual human sera (e.g. serum 034960); test: Tettox ELISA of biotinylated peptides on individual human sera; assay type: binding; conditions: for ELISA OD SERUM 034960: human serum 034960 diluted 100x
Description: a 96-wells plate (preferably from Euro-Diagnostica, Arnhem, The Netherlands) is coated with streptavidin. The streptavidin coated 96 wells plate is blocked with PBS containing 5% BSA (200 μl/well, 1 h, room temperature). Subsequently, the plate is washed three times with PBS containing 0.05% TWEEN20® (polysorbate 20). A biotinylated peptide is coated by 1 h incubation at room temperature with 100 μl/well of a 2 μg/ml solution of the biotinylated peptide in PBS containing 1% BSA. The plate is washed three times with PBS containing 0.05% TWEEN20® (polysorbate 20) followed by incubation for 1 h at room temperature with 100 μl serum from […] a human subject as defined above (preferably having a high titer of anti-TTd antibodies) that had been diluted at least 100, 200, 400, 500 or 1000 times and preferably not more than 100,000, 10,000, 7,500, 5,000 or 2,500 times with PBS containing 1% BSA. Then the plate is washed three times with PBS containing 0.05% TWEEN20®(polysorbate 20). Each well is incubated for 1 h at room temperature with a HRP-conjugated IgG antibody (mouse anti-human IgG-HRP monoclonal, clone G18-145, cat no 555788, Becton Dickinson, 100 μl/well of a 1000× dilution in PBS containing 0.05% TWEEN20® (polysorbate 20)) after which the plate is washed three times with PBS containing 0.05% TWEEN20® (polysorbate 20). Development is performed with 2,2′-azino-di-(3-ethylbenzthiazoline sulfonic acid), ABTS+H2O2 1/1000, 100 μl/well. Optical density is measured at 415 nm with a BIO-RAD, model 680, microplate reader. In each plate, preferably a negative contol is included, more preferably at least in triplicate. A preferred negative contol is serum from a human subject without detectable anti-TTd antibodies. Another preferred negative control is a solution of BSA. A peptide according to (ii) above is a peptide according to the invention if it is bound by antibodies in at least 40, 45, 50, 55, 60, 65, 70, 75, 80, 85, 87, 90, 91, 92, 93, 94, 95, 96, 97, 98, 99% most preferably 100% of the tested human serum samples. A peptide is considered to be bound by antibodies in a serum sample if the determined optical density for that particular serum sample is at least 2.0, more preferably 2.5, 3.0, 3.5 or more times higher as compared to the optical density that is determined for the negative control.
Streptavidin coated 96 wells plates (Euro-Diagnostica) were blocked with PBS containing 5% BSA (200 μl/well, 1 h, room temperature). Plates were washed three times with PBS containing 0.05% TWEEN20® (polysorbate 20). Coating of the biotinylated peptides was performed by 1 h incubation at room temperature with 100 μl/well of a 2 μg/ml solution of the biotinylated peptide in PBS containing 1% BSA. Plates were washed three times with PBS containing 0.05% TWEEN20®. Wells were incubated for 1 h at room temperature with either 100 μl TETAQUIN® […] that had been diluted 800× with PBS containing 1% BSA or with 100 μl human serum that had been diluted 100× with PBS containing 1% BSA. Plates were washed three times with PBS containing 0.05% TWEEN20® (polysorbate 20). Each well was incubated for 1 h at room temperature with a HRP-conjugated IgG antibody (mouse anti-human IgG-HRP monoclonal, clone G18-145, cat no 555788, Becton Dickinson, 100 μl/well of a 1000× dilution in PBS containing 0.05% TWEEN20® (polysorbate 20)). Plates were washed three times with PBS containing 0.05% TWEEN20® (polysorbate 20). Development was performed with 2,2′-azino-di-(3-ethylbenzthiazoline sulfonic acid), ABTS+H2O2 1/1000, 100 μl/well. Optical density was measured at 415 nm with a BIO-RAD, model 680, microplate reader.
Thereafter, the inventors tested these 7 peptides on individual sera, because an epitope is needed to which every person makes antibodies.

[2] = test system: antibodies in TETAQUIN® (anti-TTd antibodies); assay type: binding, human
[3] = Table 6, conservative substitutions scan of […]

Row | Substance | ELISA OD SERUM 034960 [1, 3] | ELISA OD TETAQUIN [2, 3] | also measured
1 | F I G I T E L K K L E S K I N K V A Z O (FIGITELKKLESKINKVA[Ahx]K; not fully specified (residue 20)) [0942-27] | – | – | ELISA OD SERUM 034960 ([1]; Table 5, Ala scan of […]): 1.20; ELISA OD TETAQUIN ([2]; Table 5, Ala scan of […]): 1.26
2 | F I G I T E L K K L E S K I N K V F Z O [0942-09] | 1.36 | 1.26 | ELISA OD SERUM 034960 ([1]; Table 5, Ala scan of […]): 1.36; OD ([2]; Table 3, further length variants and Lys(formyl) variants, […], neg. control OD 0.30): 2.30; ELISA OD TETAQUIN ([2]; Table 5, Ala scan of […]): 1.26
3 | F I G I T E L K K L E S K I N K V Y Z O (FIGITELKKLESKINKVY[Ahx]K; not fully specified (residue 20); also: O: biotin modification, exact residue form not clear) [0942-45] | 1.23 | 1.11 | –
4 | F I G I T E L K K L E S K I N R V F Z O (FIGITELKKLESKINRVF[Ahx]K(Biotin)) [0942-43] | 1.31 | 1.26 | –
5 | F I G I T E L K K L E S K I Q K V F Z O (FIGITELKKLESKIQKVF[Ahx]K(Biotin)) [0942-42] | 1.26 | 1.41 | –
6 | F I G I T E L K K L E S K L N K V F Z O (FIGITELKKLESKLNKVF[Ahx]K(Biotin)) [0942-41] | 1.32 | 1.11 | –
7 | F I G I T E L K K L E S R I N K V F Z O (FIGITELKKLESRINKVF[Ahx]K(Biotin)) [0942-40] | 1.27 | 1.19 | –
8 | F I G I T E L K K L E T K I N K V F Z O (FIGITELKKLETKINKVF[Ahx]K(Biotin)) [0942-39] | 1.04 | 0.88 | –
9 | F I G I T E L K R L E S K I N K V F Z O (FIGITELKRLESKINKVF[Ahx]K(Biotin)) [0942-36] | 1.23 | 1.12 | –
10 | F I G I T E L R K L E S K I N K V F Z O (FIGITELRKLESKINKVF[Ahx]K(Biotin)) [0942-35] | 0.90 | 1.02 | –
11 | F I G L T E L K K L E S K I N K V F Z O (FIGLTELKKLESKINKVF[Ahx]K(Biotin)) [0942-31] | 1.19 | 0.97 | –
12 | F I S I T E L K K L E S K I N K V F Z O (FISITELKKLESKINKVF[Ahx]K(Biotin)) [0942-30] | 1.32 | 1.10 | –
13 | F L G I T E L K K L E S K I N K V F Z O (FLGITELKKLESKINKVF[Ahx]K(Biotin)) [0942-29] | 1.29 | 1.19 | –
14 | QYIKANSKFIGITELKKLESKIZO [β32] | – | – | antibodies against the peptide in individual donor sera ([1]; 14 individual sera, FIGS. 5a-5n): All donors have antibodies; binding to TETAQUIN (screen of overlapping 22-mer TTx peptides) ([2]; FIG. 3 (α-chain), FIG. 4 (β-chain)): good binding; also recorded: antibodies present; OD ([2]; Table 2, length variants of peptide β-32, section 'With linker', […] diluted 800x, OD at 415 nm): 1.3; OD ([2]; Table 2, length variants of peptide β-32, section 'Without linker' (sequence listed without Z O), […]): 1.3; ELISA OD, effect of longer spacer and C- versus N-terminal biotinylation ([2]; Table 4, antibody source not given): 1.16
15 | Y I G I T E L K K L E S K I N K V F Z O (YIGITELKKLESKINKVF[Ahx]K(Biotin)) [0942-28] | 1.30 | 1.23 | –
